Patent US20240344241A1, “PROTEINACEOUS MOLECULES AND USES THEREFOR” (THE UNIVERSITY OF QUEENSLAND, priority 2021, published 2024)
Bridge positions count the residues as written; N and C are the ends. Peptide text beside a SMILES is read from it.

Assays:
[1] = target: T1, Human β-FXIIa (Homo sapiens, UniProt P00748); experiment: FXIIa competitive inhibition assay, fluorescent substrate Boc-QGR-MCA; assay type: biochemical; details: 0.5 nM FXIIa, 50 μM Boc-QGR-MCA; read-out: Ki for FXIIa, fluorescent substrate
T1 construct: Human β-FXIIa was obtained from Molecular Innovations, together with human FXa, human FXIa, human α-thrombin, and human plasma kallikrein; purchased Molecular Innovations; host or cells: purified from human plasma
Procedure, shortened: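 Human β-FXIIa (10 nM) preincubated to equilibrium with serially diluted inhibitors at room temperature in Tris pH 8.0 with NaCl, CaCl2 and Triton X-100. Activity followed with 100 μM Ac-QRFR-pNA (KM 162 μM) at 405 nm, or for later variants 0.5 nM enzyme with 50 μM Boc-QGR-MCA (KM 187 μM) by fluorescence. Ki from Morrison fits.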

[2] = test system: human whole blood; experiment: Activated clotting time (ACT) in human whole blood
Procedure: (§1) The anticoagulant activity of cyclic MCoFx7 was determined in human whole blood using two assays: activated clotting time (ACT) and rotational thromboelastometry (ROTEM). In ACT assays, the clotting time (y-axis) was increased in a dose-dependent manner from the control (124 s), reaching 223 s with 20 μM MCoFx7. […] Anticoagulant activity was verified by thromboelastometry (TEM) that was measured after activation of the intrinsic pathway (INTEM) (refer to FIG. 16). […] By comparison, a single concentration of cyclic [A25P]MCoFx7 (10 μM) produced a clotting time of 500 s, similar to cyclic MCoFx7 at 10 μM (469 s).
(§2) Activated clotting time (ACT) was measured in fresh whole blood using celite tubes with the Hemochron 401 coagulation analyzer (Soma Technology, Bloomfield, CT, USA). Whole blood clot formation was recorded by ROTEM® Thromboelastometry (Haemoview Diagnostics, Brisbane, Australia) using INTEM (contact factor-initiated coagulation) and HEPTEM (contact factor-initiated coagulation with heparinase) activating reagents according to the manufacturer's instructions.

[3] = test system: human whole blood, intrinsic pathway (INTEM); experiment: Rotational thromboelastometry INTEM in human whole blood
Procedure: as §1, §2

[4] = test system: human blood; experiment: ACT assay of blood samples from the ex vivo ECMO model; details: ECMO circuit, single dose 20 μM
Procedure: (§3) The duration of effect for each treatment was also monitored by taking blood samples from the circuit over time and performing clotting assays (refer to FIG. 18). In ACT assays, a clotting time of more than 200 s was maintained for cyclic MCoFx7 over the course of the experiment (>300 s from 0.5 h-6 h).
(§4) Ex vivo ECMO circuits (Permanent Life Support [PLS] System, Maquet C P, Rastatt, Germany) consisted of a Quadrox D Oxygenator and ROTAFLOW centrifugal pump, both incorporated into a tubing set, with a tip-to-tip BIOLINE (albumin and heparin) coating. Initially, the PLS system was primed with Plasma-Lyte 148 and heated to 37.8° C. […] Inlet and outlet pressures between the membrane oxygenator were monitored using a silicone-based pressure transducer (Omega Engineering, Norwalk, CT, USA) and were recorded as the delta oxygenator pressure (P). […]
as §2

[5] = test system: human blood; experiment: INTEM assay of blood samples from the ex vivo ECMO model; details: ECMO circuit, single dose 20 μM
Procedure: as §3, §4, §2

[6] = test system: human blood; experiment: HEPTEM assay of blood samples from the ex vivo ECMO model; details: ECMO circuit, heparinase added
Procedure: as §3, §4, §2

[7] = target: T1, Human β-FXIIa; experiment: FXIIa competitive inhibition assay, colorimetric substrate Ac-QRFR-pNA; assay type: biochemical
Procedure, shortened: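 Assays run three times in duplicate at pH 8.0 (Tris-HCl, NaCl, CaCl2, Triton X-100). Rates of pNA or MCA release after enzyme–inhibitor equilibration at room temperature were fitted by non-linear regression to the Morrison equation for Ki.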

[8] = target: T2, Human trypsin (Homo sapiens, UniProt P07477); experiment: Trypsin competitive inhibition assay; assay type: biochemical
T2 construct: purchased Sigma-Aldrich; host or cells: purified from human tissue
Procedure: (§5) The activity of acyclic and cyclic MCoFx1-5 and analogues thereof was assessed in competitive inhibition assays, as previously described in Swedberg et al. (2016) J Med Chem, 59: 7287-7292. Human β-FXIIa was obtained from Molecular Innovations, together with human FXa, human FXIa, human α-thrombin, and human plasma kallikrein. Human cationic trypsin and human plasmin were obtained from Sigma-Aldrich, and recombinant human matriptase was sourced from R&D Systems. Recombinant human urokinase (uPA) and recombinant human tissue plasminogen activator (tPA) were expressed in Expi293 cells, as previously described in Li et al. (2019) Chembiochem, 20: 46-50. FXIIa inhibition assays were performed in clear, low-binding 96-well plates using 250 μL (final volume) of assay buffer (0.1 M Tris-HCl pH 8.0, 0.1 M NaCl, 10 mM CaCl2 and 0.005% Triton X-100). Inhibitors were serially diluted and incubated with 10 nM FXIIa at room temperature to reach equilibrium. After adding 100 μM Ac-QRFR-pNA substrate (KM=162 μM), enzymatic activity was measured by monitoring release of the pNA moiety using a TECAN infinite M1000 Pro plate reader (A=405 nm, reading interval, 10 s; assay time course, 7 min). Assays were conducted in three times in duplicate. Substrate kinetic constants (Michaelis-Menten) and inhibition constants (Morrison K) were determined by non-linear regression using Prism 7 (GraphPad). Selectivity assays with off-target proteases were performed in a similar way, except that different concentrations of enzyme and substrate were used, as indicated in Table 16. For assays using a fluorescent substrate (peptide-4-methylcoumaryl-7-amide, MCA), black low-binding 96-well plates were used and activity was measured using a TECAN infinite M1000 pro plate reader (λex 360 nm, λem 460 nm, reading interval, 30 s; assay time course, 5-30 min).

[9] = target: T3, Rec. human matriptase (Homo sapiens, UniProt Q9Y5Y6); experiment: Matriptase inhibition assay; assay type: biochemical
T3 construct: purchased R&D Systems
T3 sequence (Q9Y5Y6 615-855 limits assumed): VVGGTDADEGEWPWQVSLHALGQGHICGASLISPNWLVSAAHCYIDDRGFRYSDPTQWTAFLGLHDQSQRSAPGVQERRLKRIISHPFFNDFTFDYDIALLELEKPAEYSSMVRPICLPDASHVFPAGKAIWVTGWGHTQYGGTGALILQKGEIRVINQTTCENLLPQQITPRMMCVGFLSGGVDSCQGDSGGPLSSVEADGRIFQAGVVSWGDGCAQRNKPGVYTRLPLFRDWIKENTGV
Procedure: as §5

[10] = target: kallikrein-related peptidase 4 (KLK4) (Homo sapiens, UniProt Q9Y5K2); experiment: KLK4 competitive inhibition assay; assay type: biochemical
Procedure: The inhibitor variants were screened against FXIIa and three off-target proteases, trypsin, matriptase and kallikrein-related peptidase 4 (KLK4), in competitive inhibition assays using a single concentration of inhibitor that ranged from 1.25 nM (KLK4) to 25 nM (FXIIa).
The activity of acyclic and cyclic MCoFx1-5 and analogues thereof was assessed in competitive inhibition assays, as previously described in Swedberg et al. (2016) J Med Chem, 59: 7287-7292. Human β-FXIIa was obtained from Molecular Innovations, together with human FXa, human FXIa, human α-thrombin, and human plasma kallikrein. Human cationic trypsin and human plasmin were obtained from Sigma-Aldrich, and recombinant human matriptase was sourced from R&D Systems. […] After adding 100 μM Ac-QRFR-pNA substrate (KM=162 μM), enzymatic activity was measured by monitoring release of the pNA moiety using a TECAN infinite M1000 Pro plate reader (A=405 nm, reading interval, 10 s; assay time course, 7 min). […] Substrate kinetic constants (Michaelis-Menten) and inhibition constants (Morrison K) were determined by non-linear regression using Prism 7 (GraphPad). […] For assays using a fluorescent substrate (peptide-4-methylcoumaryl-7-amide, MCA), black low-binding 96-well plates were used and activity was measured using a TECAN infinite M1000 pro plate reader (λex 360 nm, λem 460 nm, reading interval, 30 s; assay time course, 5-30 min).

[11] = test system: clotting via the intrinsic pathway; experiment: Activated partial thromboplastin time (aPTT) assay in human plasma; assay type: biochemical
Source text: (§6) Citrated, platelet-poor plasma samples from healthy adults were collected, prepared, and stored using previously established collection protocols, such as in Zdenek et al. (2019) Toxicol in Vitro, 58: 97-109.
(§7) Standard coagulation assays were used to determine the effect of the inhibitors on the clotting time of human plasma. Activated partial thromboplastin time (aPTT) uses a Kaolin reagent (clay) to activate the intrinsic/contact pathway of the coagulation cascade, whereas prothrombin time (PT) uses Neoplastine (lyophilized thromboplastin prepared from rabbit cerebral tissue) to activate the extrinsic/tissue-factor pathway of the coagulation cascade. A minor adjustment was made to both tests (addition of 25 μL inhibitor or buffer; refer to Table 17) to accommodate the addition of an inhibitor without changing the total volume (and therefore relative ratios of additives) of the assay. Concentrations of inhibitor are reported as the concentration at the point of incubation in the assay, i.e. not taking into account the addition of the start reagent (calcium for aPTT, or Neoplastine for PT).
(§8) Clotting time (seconds) of plasma was automatically measured using a STA-R Max® analyzer (Stago, Asnieres sur Seine, France). Measurements were conducted using a viscosity-based (mechanical) detection system, whereby opposing magnets oscillate a small metal spherical pellet inside the test cuvette (250 μL total volume) until a clot is formed. Dilution of the inhibitor in Owren-Koller (OK) buffer for dose-response curves was performed automatically by the machine. Reagents were kept at 15-19° C. in the machine during experimentation and otherwise stored at 4° C. All tests were performed in triplicate.

[12] = test system: clotting via the extrinsic pathway; experiment: Prothrombin time (PT) assay in human plasma; assay type: biochemical; details: at 10 μM
Source text: as §6, §7, §8

T1 sequence (P00748 373-615 limits assumed, other chains not shown): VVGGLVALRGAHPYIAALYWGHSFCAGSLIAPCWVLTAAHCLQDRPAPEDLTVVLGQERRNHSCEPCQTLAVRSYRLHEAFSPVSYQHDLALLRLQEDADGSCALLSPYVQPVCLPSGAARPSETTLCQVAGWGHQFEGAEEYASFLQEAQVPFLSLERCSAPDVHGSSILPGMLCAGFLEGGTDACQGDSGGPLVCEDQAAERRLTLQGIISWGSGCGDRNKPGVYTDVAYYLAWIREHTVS
Sequence of kallikrein-related peptidase 4 (KLK4) (Q9Y5K2 31-254): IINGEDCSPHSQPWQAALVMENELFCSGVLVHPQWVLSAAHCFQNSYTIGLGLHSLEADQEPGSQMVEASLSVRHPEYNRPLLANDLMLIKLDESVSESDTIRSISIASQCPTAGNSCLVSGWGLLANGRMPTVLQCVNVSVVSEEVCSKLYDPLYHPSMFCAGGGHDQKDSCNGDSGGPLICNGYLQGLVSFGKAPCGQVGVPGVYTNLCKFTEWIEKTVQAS

Compound	Ki [1]	ACT clotting time versus therapeutic range (180-220 s) ([2]; 10 μM or 20 μM)	ACT clotting time ([2]; 20 μM, human whole blood)	INTEM clotting time ([3]; 10 μM)	INTEM clotting time ([3]; 20 μM)	ACT clotting time ([4]; from 0.5 h-6 h)	ACT clotting time maintained over the course of the experiment [4]	INTEM anticoagulant activity, duration [5]	HEPTEM anticoagulant activity [6]	change in Ki for FXIIa compared to M [7]	Ki against trypsin (in words) [8]	fold change in activity for trypsin compared to M [8]	Ki against matriptase (in words) [9]	fold change in activity for matriptase compared to M [9]	fold change in activity for KLK4 compared to M [10]	EC1.5× (concentration required to extend the clotting time by 50%) [11]	EC2× (doubling the clotting time) [11]	clotting time compared to control, PT assay [12]
CC[C@H](C)[C@@H]1NC(=O)CNC(=O)CNC(=O)[C@H](CC(=O)O)NC(=O)[C@H](CO)NC(=O)CNC(=O)[C@H](CO)NC(=O)CNC(=O)[C@@H]2CSSC[C@@H]3NC(=O)[C@H](CC(=O)O)NC(=O)[C@H](CO)NC(=O)[C@H](CC(=O)O)NC(=O)[C@H](CCCNC(=N)N)NC(=O)[C@H](CCCNC(=N)N)NC(=O)[C@@H]4CSSC[C@H](NC(=O)[C@H]([C@@H](C)CC)NC(=O)[C@H](CSSC[C@H](NC1=O)C(=O)N1CCC[C@H]1C(=O)N[C@@H](CCCNC(=N)N)C(=O)N[C@@H]([C@@H](C)CC)C(=O)NCC(=O)N[C@@H](CCCNC(=N)N)C(=O)N[C@@H](CC(C)C)C(=O)N4)NC(=O)[C@H](C)NC(=O)CNC(=O)[C@@H]1CCCN1C3=O)C(=O)N[C@@H](CCCNC(=N)N)C(=O)N[C@@H](C)C(=O)N[C@@H]([C@@H](C)O)C(=O)N[C@@H](CCCNC(=N)N)C(=O)N[C@@H](Cc1ccccc1)C(=O)N2 [Cyclic MCoFx7] (cyclo(ACICRATRFCGSGSDGGICPRIGRLCRRDSDCPG); disulfide 2-19, 4-26, 10-32)	0.064 nM	within the therapeutic range	223 s	469 s	521 s	> 300 s	more than 200 s	anticoagulant activity was maintained for 6 h	independent of heparin									
NH2-RVCPR[4-F-Phe]EKKCRRDSDCPGACICRGNGYCG-OH (RVCPRXEKKCRRDSDCPGACICRGNGYCG; 4-F-Phe non-natural residue; MOD_RES 6 4-fluoro-L-phenylalanine) [Peptide 1]										three-fold	in the micromolar range	7,350 fold	in the micromolar range	9,650 fold	> 100,000 fold	840 nM	2.9 µM	No effect on clotting time
